Experiments:
[1] = target: Mitogen-activated protein kinase 1 (Homo sapiens, UniProt P28482); assay: DRUGMATRIX: Protein Serine/Threonine Kinase, ERK2 enzyme inhibition (substrate: Myelin Basic Protein); parameters: species or system Escherichia coli; conditions: Not Active = under 50% inhibition at 10 µM
Progesterone receptor = target: T1, Progesterone receptor (Bos taurus, UniProt Q690N0); assay: DRUGMATRIX: Progesterone radioligand binding (ligand: [3H] R-5020); assay type: tissue-based, Uterus; conditions: Not Active = under 50% inhibition at 10 µM
T1 sequence (Q690N0 whole entry): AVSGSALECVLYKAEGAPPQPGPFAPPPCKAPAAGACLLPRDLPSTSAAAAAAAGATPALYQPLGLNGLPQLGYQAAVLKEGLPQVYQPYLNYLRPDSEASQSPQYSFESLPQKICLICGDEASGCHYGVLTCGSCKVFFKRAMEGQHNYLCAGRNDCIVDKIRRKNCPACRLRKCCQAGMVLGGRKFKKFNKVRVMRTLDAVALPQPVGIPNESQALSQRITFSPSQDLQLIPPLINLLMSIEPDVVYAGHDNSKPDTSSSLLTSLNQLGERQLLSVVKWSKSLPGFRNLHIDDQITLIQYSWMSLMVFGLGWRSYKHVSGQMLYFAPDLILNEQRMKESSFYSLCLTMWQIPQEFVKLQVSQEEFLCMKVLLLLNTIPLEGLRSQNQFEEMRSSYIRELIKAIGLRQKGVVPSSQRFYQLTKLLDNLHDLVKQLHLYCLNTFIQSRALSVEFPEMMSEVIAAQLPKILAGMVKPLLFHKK

[2] = DRUGMATRIX: GABAA, Flunitrazepam, Central radioligand binding (ligand: [3H] Flunitrazepam); assay type: cell membranes, Rattus norvegicus, Wistar, Brain, Membrane; conditions: Not Active = under 50% inhibition at 10 µM
[3] = target: Tyrosine-protein kinase Fyn (Homo sapiens, UniProt P06241); assay: biochemical; assay type: cell-based, Insect cells; conditions: insect cells;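 further: enzymatic inhibition of Fyn kinase activity measured with Poly(Glu:Tyr) as the phosphorylation substrate; in other assays of this panel Not Active means under 50% inhibition at 10 µM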
Sequence of Tyrosine-protein kinase Fyn (P06241 whole entry): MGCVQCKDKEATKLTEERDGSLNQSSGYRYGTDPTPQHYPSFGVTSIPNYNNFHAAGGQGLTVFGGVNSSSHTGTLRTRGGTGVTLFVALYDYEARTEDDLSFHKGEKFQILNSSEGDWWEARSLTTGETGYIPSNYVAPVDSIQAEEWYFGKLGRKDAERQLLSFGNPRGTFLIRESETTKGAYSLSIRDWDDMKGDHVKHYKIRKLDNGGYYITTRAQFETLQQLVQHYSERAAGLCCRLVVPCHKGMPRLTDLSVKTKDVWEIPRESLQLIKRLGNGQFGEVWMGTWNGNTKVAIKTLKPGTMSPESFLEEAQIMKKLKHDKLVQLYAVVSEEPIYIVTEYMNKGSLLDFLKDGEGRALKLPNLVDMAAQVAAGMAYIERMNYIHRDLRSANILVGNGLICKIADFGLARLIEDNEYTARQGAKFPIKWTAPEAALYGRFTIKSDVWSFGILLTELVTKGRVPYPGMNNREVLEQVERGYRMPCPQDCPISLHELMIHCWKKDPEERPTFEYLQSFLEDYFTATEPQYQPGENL

[4] = target: 5-hydroxytryptamine receptor 1B (Rattus norvegicus, UniProt P28564); assay type: cell membranes, Wistar, Cerebral cortex, Membrane; further: in other assays of this panel Not Active means under 50% inhibition at 10 µM
Sequence of 5-hydroxytryptamine receptor 1B (P28564 whole entry): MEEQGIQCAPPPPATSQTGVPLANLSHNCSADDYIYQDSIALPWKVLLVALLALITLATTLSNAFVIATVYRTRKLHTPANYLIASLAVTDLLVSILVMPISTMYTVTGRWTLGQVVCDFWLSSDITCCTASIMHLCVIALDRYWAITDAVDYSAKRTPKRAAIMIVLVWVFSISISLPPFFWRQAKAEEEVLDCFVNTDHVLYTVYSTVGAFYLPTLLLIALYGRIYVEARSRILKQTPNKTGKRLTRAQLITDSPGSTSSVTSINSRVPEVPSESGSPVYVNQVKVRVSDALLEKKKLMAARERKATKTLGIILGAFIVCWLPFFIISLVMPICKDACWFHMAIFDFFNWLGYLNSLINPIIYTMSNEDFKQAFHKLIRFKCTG

[5] = target: T2, Vasoactive intestinal polypeptide receptor 1 (Homo sapiens, UniProt P32241); assay type: cell membranes, Membrane; conditions: ht-29; further: in other assays of this panel Not Active means under 50% inhibition at 10 µM
T2 sequence (P32241 whole entry): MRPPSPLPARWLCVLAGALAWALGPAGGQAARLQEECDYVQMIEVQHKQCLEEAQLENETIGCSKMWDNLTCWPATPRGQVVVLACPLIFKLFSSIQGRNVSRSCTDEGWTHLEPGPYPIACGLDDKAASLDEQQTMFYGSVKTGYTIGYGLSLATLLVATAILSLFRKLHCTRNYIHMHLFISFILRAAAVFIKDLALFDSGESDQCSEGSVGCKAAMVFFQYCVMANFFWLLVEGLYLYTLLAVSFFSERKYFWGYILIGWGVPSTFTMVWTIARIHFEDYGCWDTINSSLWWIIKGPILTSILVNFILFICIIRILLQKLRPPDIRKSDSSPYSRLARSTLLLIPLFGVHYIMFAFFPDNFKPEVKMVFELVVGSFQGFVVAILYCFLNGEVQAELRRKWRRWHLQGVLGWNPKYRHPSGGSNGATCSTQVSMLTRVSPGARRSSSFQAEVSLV

[6] = DRUGMATRIX: Purinergic P2X radioligand binding (ligand: [3H] alpha, beta-Methylene-ATP); assay type: cell membranes, Oryctolagus cuniculus, New Zealand albino, Urinary bladder, Membrane; conditions: Not Active = under 50% inhibition at 10 µM
Insulin receptor = Insulin receptor (Rattus norvegicus, UniProt P15127); assay type: cell membranes, Wistar, Liver, Membrane; further: in other assays of this panel Not Active means under 50% inhibition at 10 µM
Sequence of Insulin receptor (P15127 27-759 limits assumed): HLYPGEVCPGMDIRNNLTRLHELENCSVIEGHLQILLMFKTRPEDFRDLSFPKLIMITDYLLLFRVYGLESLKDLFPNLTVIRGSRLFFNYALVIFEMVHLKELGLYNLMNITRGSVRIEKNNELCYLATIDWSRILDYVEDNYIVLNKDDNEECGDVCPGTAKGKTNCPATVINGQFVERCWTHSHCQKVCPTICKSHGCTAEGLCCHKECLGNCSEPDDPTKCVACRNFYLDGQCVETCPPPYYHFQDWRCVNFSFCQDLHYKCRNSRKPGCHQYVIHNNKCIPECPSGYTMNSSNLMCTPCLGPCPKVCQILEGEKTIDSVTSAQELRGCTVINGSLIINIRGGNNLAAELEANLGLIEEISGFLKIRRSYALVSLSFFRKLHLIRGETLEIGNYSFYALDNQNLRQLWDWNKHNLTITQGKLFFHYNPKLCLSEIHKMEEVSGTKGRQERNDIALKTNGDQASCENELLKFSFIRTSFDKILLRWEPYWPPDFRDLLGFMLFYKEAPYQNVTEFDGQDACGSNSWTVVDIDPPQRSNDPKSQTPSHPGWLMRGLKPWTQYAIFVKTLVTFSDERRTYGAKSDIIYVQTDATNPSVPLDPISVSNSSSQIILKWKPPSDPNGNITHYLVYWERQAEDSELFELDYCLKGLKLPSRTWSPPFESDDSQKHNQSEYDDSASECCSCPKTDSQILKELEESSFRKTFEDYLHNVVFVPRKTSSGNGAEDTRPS
Sequence of Insulin receptor (P15127 764-1383 limits assumed): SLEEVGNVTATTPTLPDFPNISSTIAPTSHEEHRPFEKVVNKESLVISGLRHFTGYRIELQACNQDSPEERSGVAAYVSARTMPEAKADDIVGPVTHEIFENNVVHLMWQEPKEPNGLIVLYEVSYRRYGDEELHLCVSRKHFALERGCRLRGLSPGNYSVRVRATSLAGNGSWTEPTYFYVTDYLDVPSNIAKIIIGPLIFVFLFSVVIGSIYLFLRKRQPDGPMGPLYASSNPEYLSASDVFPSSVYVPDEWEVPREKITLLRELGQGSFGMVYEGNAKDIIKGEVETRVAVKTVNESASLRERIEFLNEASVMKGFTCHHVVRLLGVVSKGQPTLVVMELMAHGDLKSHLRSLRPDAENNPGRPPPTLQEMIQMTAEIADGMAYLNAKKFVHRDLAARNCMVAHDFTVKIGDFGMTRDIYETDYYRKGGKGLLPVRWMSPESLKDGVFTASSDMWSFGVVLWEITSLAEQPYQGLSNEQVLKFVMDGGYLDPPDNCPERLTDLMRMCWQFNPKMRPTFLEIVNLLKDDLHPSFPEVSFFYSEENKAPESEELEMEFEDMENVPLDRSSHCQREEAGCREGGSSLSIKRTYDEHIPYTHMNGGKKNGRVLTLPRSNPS

[7] = target: Sodium-dependent noradrenaline transporter (Homo sapiens, UniProt P23975); assay: DRUGMATRIX: Norepinephrine Transporter radioligand binding (ligand: [125I] RTI-55); assay type: cell membranes, MDCK, Membrane; conditions: Not Active = under 50% inhibition at 10 µM
Sequence of Sodium-dependent noradrenaline transporter (P23975 whole entry): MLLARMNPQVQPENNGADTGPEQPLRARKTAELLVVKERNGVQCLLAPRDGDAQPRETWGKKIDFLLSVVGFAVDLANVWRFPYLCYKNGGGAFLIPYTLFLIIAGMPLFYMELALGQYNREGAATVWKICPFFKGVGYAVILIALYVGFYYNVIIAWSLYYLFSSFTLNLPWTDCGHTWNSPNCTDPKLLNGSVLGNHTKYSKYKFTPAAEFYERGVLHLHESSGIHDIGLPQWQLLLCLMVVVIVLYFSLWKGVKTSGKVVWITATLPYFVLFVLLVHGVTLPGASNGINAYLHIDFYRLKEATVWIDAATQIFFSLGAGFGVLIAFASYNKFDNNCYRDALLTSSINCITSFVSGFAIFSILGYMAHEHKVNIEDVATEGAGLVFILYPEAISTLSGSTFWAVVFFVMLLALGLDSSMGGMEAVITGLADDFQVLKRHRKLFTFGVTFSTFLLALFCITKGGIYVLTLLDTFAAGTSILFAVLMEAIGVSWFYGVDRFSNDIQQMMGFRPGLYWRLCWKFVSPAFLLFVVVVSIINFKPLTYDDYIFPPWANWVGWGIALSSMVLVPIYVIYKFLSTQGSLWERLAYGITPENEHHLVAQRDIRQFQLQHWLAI

[8] = target: T3, 3-hydroxy-3-methylglutaryl-coenzyme A reductase (Homo sapiens, UniProt P04035); parameters: species or system Escherichia coli
T3 sequence (P04035 whole entry): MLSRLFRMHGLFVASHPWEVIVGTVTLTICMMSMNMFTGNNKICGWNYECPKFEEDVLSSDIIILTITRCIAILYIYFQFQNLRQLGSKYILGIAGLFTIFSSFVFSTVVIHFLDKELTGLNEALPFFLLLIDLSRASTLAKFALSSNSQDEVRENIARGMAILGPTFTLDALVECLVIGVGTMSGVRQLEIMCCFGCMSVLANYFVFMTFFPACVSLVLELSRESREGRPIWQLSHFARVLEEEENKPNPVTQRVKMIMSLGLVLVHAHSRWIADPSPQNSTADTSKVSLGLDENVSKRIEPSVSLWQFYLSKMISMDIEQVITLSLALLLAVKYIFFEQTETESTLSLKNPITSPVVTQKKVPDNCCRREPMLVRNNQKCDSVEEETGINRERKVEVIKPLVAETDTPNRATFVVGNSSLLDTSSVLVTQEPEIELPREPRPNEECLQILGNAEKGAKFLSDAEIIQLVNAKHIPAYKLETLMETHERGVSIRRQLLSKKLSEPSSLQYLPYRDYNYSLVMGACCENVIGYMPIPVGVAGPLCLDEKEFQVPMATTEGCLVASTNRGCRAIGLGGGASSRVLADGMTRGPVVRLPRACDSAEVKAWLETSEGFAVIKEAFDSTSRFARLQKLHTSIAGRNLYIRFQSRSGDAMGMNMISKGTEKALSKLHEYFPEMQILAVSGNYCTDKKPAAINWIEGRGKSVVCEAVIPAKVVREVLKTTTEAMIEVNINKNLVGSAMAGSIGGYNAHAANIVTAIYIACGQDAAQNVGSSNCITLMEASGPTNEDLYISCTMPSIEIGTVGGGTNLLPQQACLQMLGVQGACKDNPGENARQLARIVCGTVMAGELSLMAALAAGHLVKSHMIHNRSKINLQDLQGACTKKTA

[9] = target: Beta-2 adrenergic receptor (Homo sapiens, UniProt P07550); assay: DRUGMATRIX: Adrenergic beta2 radioligand binding (ligand: [3H] CGP-12177); assay type: cell membranes, Membrane; conditions: cho; Not Active = under 50% inhibition at 10 µM
Sequence of Beta-2 adrenergic receptor (P07550 whole entry): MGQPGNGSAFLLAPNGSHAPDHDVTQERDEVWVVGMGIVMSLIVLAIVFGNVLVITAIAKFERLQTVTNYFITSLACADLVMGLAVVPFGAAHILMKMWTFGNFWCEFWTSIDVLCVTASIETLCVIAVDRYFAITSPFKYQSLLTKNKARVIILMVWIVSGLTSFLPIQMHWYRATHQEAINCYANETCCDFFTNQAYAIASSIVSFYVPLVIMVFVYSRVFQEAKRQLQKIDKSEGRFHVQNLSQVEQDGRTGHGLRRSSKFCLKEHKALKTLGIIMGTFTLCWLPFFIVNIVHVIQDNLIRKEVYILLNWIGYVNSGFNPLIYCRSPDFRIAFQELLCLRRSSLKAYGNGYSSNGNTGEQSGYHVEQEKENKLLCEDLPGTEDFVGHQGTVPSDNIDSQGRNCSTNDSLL

[10] = DRUGMATRIX: Phosphodiesterase PDE4 enzyme inhibition (substrate: [3H]cAMP + cAMP); conditions: u-937; Not Active = under 50% inhibition at 10 µM

Sequence of Mitogen-activated protein kinase 1 (P28482 whole entry): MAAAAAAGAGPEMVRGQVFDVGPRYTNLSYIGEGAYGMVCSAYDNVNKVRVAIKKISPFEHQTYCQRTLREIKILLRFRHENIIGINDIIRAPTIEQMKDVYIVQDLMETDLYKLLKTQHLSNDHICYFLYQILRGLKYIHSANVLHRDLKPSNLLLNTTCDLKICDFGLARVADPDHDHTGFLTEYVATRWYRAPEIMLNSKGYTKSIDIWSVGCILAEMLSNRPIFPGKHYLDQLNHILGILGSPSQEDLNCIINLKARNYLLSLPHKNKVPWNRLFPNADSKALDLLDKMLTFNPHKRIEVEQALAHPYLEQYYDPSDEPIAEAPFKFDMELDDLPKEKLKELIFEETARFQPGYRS

Row | Structure (SMILES) | IC50 [1] | IC50 (Progesterone receptor) | IC50 [2] | Ki [2] | IC50 [3] | IC50 [4] | IC50 [5] | IC50 [6] | Ki [6] | IC50 (Insulin receptor) | IC50 ([7]; mdck) | IC50 [8] | IC50 [9] | IC50 [10] | Ki [10] | IC50 ([1]; read-out: IC50) [nM] | IC50 ([7]; read-out: IC50) [nM] | Ki ([7]; read-out: Ki) [nM] | IC50 (Progesterone receptor; read-out: IC50) [nM] | Ki (Progesterone receptor; read-out: Ki) [nM]
1 | CC(C)(Oc1ccc(CCNC(=O)c2ccc(Cl)cc2)cc1)C(=O)O [BEZAFIBRATE] | Not Active | Not Active | Not Active | Not Active | Not Active | Not Active | Not Active | Not Active | Not Active | Not Active | Not Active | Not Active | Not Active | Not Active | Not Active | – | – | – | – | –
2 | CCCC[C@@H](CC)COC(=O)c1ccccc1C(=O)OC[C@@H](CC)CCCC [BIS(2-ETHYLHEXYL)PHTHALATE] | Not Active | Not Active | Not Active | Not Active | Not Active | Not Active | Not Active | Not Active | Not Active | Not Active | Not Active | Not Active | Not Active | Not Active | Not Active | – | – | – | – | –
3 | Oc1c(Cl)cc(Cl)cc1Sc1cc(Cl)cc(Cl)c1O [BITHIONOL] | – | Not Active | Not Active | Not Active | Not Active | Not Active | Not Active | Not Active | Not Active | Not Active | – | Not Active | Not Active | Not Active | Not Active | 385 | 1240 | 1230 | – | –
4 | Brc1ccccc1 [BROMOBENZENE] | Not Active | Not Active | Not Active | Not Active | Not Active | Not Active | Not Active | Not Active | Not Active | Not Active | Not Active | Not Active | Not Active | Not Active | Not Active | – | – | – | – | –
5 | CCCCOC(=O)c1ccc(N)cc1 [BUTAMBEN] | Not Active | Not Active | Not Active | Not Active | Not Active | Not Active | Not Active | Not Active | Not Active | Not Active | Not Active | Not Active | Not Active | Not Active | Not Active | – | – | – | – | –
6 | CC[C@@]1(O)C(=O)OCc2c1cc1n(c2=O)Cc2cc3ccccc3nc2-1 [CAMPTOTHECIN] | Not Active | Not Active | Not Active | Not Active | Not Active | Not Active | Not Active | Not Active | Not Active | Not Active | Not Active | Not Active | Not Active | Not Active | Not Active | – | – | – | – | –
7 | CC(=O)O[C@]1(C(C)=O)CC[C@H]2[C@@H]3C=C(Cl)C4=CC(=O)CC[C@]4(C)[C@H]3CC[C@@]21C [CHLORMADINONE ACETATE] | Not Active | – | Not Active | Not Active | Not Active | Not Active | Not Active | Not Active | Not Active | Not Active | Not Active | Not Active | Not Active | Not Active | Not Active | – | – | – | 5.26 | 0.687
8 | O=C1CCc2cc(OCCCCc3nnnn3C3CCCCC3)ccc2N1 [CILOSTAZOL] | Not Active | Not Active | Not Active | Not Active | Not Active | Not Active | Not Active | Not Active | Not Active | Not Active | Not Active | Not Active | Not Active | Not Active | Not Active | – | – | – | – | –
9 | O=C(O)c1cn(C2CC2)c2cc(N3CCNCC3)c(F)cc2c1=O [CIPROFLOXACIN] | Not Active | Not Active | Not Active | Not Active | Not Active | Not Active | Not Active | Not Active | Not Active | Not Active | Not Active | Not Active | Not Active | Not Active | Not Active | – | – | – | – | –
10 | COC(=O)[C@H](c1ccccc1Cl)N1CCc2sccc2C1 [CLOPIDOGREL] | Not Active | Not Active | Not Active | Not Active | Not Active | Not Active | Not Active | Not Active | Not Active | Not Active | Not Active | Not Active | Not Active | Not Active | Not Active | – | – | – | – | –
